The structures appear in SMILES notation. Some results are limits rather than exact numbers.

Type in all cases: biochemical
In one assay the target is HDAC1 (Homo sapiens, UniProt Q13547). Nature of the assay: HDAC enzyme activity assay (fluorogenic substrate), HDAC1. The note with it: recombinant enzyme; read-out: HDAC1 inhibition (IC50).
In the next assay the target is T1, HDAC2 (Homo sapiens, UniProt Q92769).
T1 construct: NM_001527; Cat. #50002) is full-length with C-terminal his tag; His (C); purchased BPS Biosciences 50002; host or cells: baculovirus infected Sf9 cells
T1 sequence (Q92769 whole entry): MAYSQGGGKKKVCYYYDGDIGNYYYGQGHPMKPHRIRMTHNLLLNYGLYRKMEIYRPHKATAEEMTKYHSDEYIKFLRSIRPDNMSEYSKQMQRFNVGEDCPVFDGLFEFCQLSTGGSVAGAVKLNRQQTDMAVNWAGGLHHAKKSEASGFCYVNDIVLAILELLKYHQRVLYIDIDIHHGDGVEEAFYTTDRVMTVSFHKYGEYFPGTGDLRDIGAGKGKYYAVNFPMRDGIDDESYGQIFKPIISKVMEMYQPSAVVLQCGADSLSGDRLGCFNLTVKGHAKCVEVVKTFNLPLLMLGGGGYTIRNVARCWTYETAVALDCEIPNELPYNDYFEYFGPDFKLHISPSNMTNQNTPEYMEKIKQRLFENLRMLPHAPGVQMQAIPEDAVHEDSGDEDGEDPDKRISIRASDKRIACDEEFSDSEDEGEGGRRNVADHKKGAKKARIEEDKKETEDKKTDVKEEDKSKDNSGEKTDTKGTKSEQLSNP
Put plainly: HDAC enzyme activity assay (fluorogenic substrate), HDAC2. As to conditions: recombinant enzyme; read-out: HDAC2 inhibition (IC50).

In another assay the target is T2, HDAC6 (Homo sapiens, UniProt Q9UBN7).
T2 construct: BC069243; Cat. #50006) is full-length with N-terminal GST tag; GST (N); purchased BPS Biosciences 50006; host or cells: baculovirus infected Sf9 cells
T2 sequence (Q9UBN7 1-1215): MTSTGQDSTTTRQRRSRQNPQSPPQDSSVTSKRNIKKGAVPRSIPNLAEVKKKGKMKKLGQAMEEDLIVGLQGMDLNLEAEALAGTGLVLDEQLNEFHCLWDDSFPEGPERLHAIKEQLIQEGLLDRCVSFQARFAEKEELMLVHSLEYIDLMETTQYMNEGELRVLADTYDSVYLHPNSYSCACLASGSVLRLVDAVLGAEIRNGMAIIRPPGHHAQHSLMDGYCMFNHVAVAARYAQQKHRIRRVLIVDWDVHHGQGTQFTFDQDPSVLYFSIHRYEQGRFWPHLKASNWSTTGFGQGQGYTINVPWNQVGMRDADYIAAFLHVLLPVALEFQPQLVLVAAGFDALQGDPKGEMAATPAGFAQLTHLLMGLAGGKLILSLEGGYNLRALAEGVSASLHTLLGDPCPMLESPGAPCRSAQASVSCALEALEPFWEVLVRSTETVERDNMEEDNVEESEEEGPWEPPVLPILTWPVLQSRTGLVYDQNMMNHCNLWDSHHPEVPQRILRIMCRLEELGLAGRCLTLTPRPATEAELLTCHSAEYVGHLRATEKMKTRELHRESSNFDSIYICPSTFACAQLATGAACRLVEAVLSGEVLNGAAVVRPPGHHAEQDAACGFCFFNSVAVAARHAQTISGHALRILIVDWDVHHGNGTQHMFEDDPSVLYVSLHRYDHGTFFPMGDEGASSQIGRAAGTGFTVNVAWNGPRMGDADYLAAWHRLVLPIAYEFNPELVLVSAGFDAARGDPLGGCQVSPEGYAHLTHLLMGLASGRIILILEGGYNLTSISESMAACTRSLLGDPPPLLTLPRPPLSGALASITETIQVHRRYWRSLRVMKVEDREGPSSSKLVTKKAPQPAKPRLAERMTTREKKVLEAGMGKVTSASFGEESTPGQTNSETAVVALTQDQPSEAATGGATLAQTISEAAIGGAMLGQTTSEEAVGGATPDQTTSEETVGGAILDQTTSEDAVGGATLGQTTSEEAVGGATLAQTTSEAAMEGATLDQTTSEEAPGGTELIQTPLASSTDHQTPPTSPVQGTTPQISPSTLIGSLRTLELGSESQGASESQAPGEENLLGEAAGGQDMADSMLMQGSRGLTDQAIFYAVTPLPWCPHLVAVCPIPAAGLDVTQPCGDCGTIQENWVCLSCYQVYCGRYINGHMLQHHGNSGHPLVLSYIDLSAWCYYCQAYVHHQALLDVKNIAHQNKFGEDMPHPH
Put plainly: HDAC enzyme activity assay (fluorogenic substrate), HDAC6. As to conditions: recombinant enzyme; read-out: HDAC6 inhibition (IC50).

The target in a further assay is T3, PDE5A (Homo sapiens, UniProt O76074).
T3 construct: they are full-length with N-terminal GST tag; GST (N); purchased BPS Biosciences 60050; host or cells: baculovirus infected Sf9 cells
Nature of the assay: PDE enzyme activity assay (HTRF cGMP), PDE5A. As to conditions: recombinant enzyme; read-out: PDE5A1 inhibition (IC50).

HDAC1, sequence (Q13547 whole entry): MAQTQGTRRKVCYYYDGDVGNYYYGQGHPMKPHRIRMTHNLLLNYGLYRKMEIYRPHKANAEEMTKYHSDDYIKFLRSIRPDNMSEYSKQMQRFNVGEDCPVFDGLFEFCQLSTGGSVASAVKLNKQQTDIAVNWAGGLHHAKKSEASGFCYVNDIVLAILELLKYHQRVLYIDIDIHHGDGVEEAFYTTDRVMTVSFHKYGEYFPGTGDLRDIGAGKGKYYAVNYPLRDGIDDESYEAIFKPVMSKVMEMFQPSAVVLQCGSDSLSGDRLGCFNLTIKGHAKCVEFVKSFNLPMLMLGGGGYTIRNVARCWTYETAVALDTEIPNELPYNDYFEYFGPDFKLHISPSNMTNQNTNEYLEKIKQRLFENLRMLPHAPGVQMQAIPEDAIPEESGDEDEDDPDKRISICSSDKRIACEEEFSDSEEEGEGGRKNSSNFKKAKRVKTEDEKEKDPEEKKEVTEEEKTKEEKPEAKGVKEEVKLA

For `CCCc1nn(C)c2c(=O)[nH]c(-c3cc(C4=CCC(C(=O)NO)CC4)ccc3OCC)nc12` (stereo not drawn) [Example 1-38, 4-[4-ethoxy-3-(1-methyl-7-oxo-3-propyl-6H-pyrazolo[4,3-d]pyrimidin-5-yl)phenyl]cyclohex-3-ene-1-carbohydroxamic acid], the IC50 at HDAC1 was 1000 to 10000 nM; at HDAC2 it was greater than 10000 nM; at HDAC6, 10 to 1000 nM; on PDE5A, 10 to 1000 nM.
For the compound `CCCc1nn(C)c2c(=O)[nH]c(-c3cc(CC4CCN(c5ccc(C(=O)NO)cn5)CC4)ccc3OCC)nc12` [Example 1-39], the IC50 at HDAC1 was in the range of 1000 to 10000 nM; at HDAC2, 1000 to 10000 nM; on HDAC6 it was 10 to 1000 nM; at PDE5A, 10 to 1000 nM.
In the case of `CCCc1nn(C)c2c(=O)[nH]c(-c3cc(C4CCC(C(=O)NO)CC4)ccc3OCC)nc12` (stereo not drawn) [Example 1-41, 4-[4-ethoxy-3-(1-methyl-7-oxo-3-propyl-6H-pyrazolo[4,3-d]pyrimidin-5-yl)phenyl]cyclohexanecarbohydroxamic acid], the IC50 is greater than 10000 nM on HDAC1, greater than 10000 nM at HDAC2, 1000 to 10000 nM at HDAC6 and 10 to 1000 nM at PDE5A.
Take `CCCc1nn(C)c2c(=O)[nH]c(-c3cc(C4=CCC(CC(=O)NO)CC4)ccc3OCC)nc12` (stereo not drawn) [Example 1-42]: the IC50 at HDAC1 is 1000 to 10000 nM; at HDAC2, greater than 10000 nM; at HDAC6, 10 to 1000 nM; on PDE5A it was 10 to 1000 nM.
For `CCCc1nn(C)c2c(=O)[nH]c(-c3cc(CC4CCN(C(=O)NO)CC4)ccc3OCC)nc12` [Example 1-49, 4-[[4-ethoxy-3-(1-methyl-7-oxo-3-propyl-6H-pyrazolo[4,3-d]pyrimidin-5-yl)phenyl]methyl]piperidine-1-carbohydroxamic acid], the IC50 was greater than 10000 nM on HDAC1, greater than 10000 nM at HDAC2, 1000 to 10000 nM at HDAC6 and 10 to 1000 nM on PDE5A.
Turning to `CCCc1nn(C)c2c(=O)[nH]c(-c3cc(C4CCC(CC(=O)NO)CC4)ccc3OCC)nc12` (stereo not drawn) [Example 1-51], the IC50 at HDAC1 is 1000 to 10000 nM; at HDAC2 it was greater than 10000 nM; on HDAC6 it was 1000 to 10000 nM; on PDE5A, 10 to 1000 nM.
In the case of `CCCc1nn(C)c2c(=O)[nH]c(-c3cc(OC4CCC(C(=O)NO)CC4)ccc3OCC)nc12` (stereo not drawn) [Example 1-53], the IC50 is 1000 to 10000 nM at HDAC1, 1000 to 10000 nM at HDAC2, 1000 to 10000 nM on HDAC6 and 10 to 1000 nM at PDE5A.
Consider `CCCc1nn(C)c2c(=O)[nH]c(-c3cc(N4CCC(CCC(=O)NO)CC4)ccc3OCC)nc12` [Example 1-54], for which the IC50 on HDAC1 fell in the range of 10 to 1000 nM; on HDAC2, 1000 to 10000 nM; on HDAC6 it was 1000 to 10000 nM; on PDE5A, 10 to 1000 nM.
As to `CCCc1nn(C)c2c(=O)[nH]c(-c3cc(OCc4ccc(C(=O)NO)cc4)ccc3OCC)nc12` [Example 1-55], the IC50 is 1000 to 10000 nM on HDAC1, greater than 10000 nM on HDAC2, 10 to 1000 nM on HDAC6 and 10 to 1000 nM at PDE5A.
For the compound `CCCc1nn(C)c2c(=O)[nH]c(-c3cc(N4CCC5(CCC(C(=O)NO)C5)CC4)ccc3OCC)nc12` (stereo not drawn) [Example 1-56, 8-[4-ethoxy-3-(1-methyl-7-oxo-3-propyl-6H-pyrazolo[4,3-d]pyrimidin-5-yl)phenyl]-8-azaspiro[4.5]decane-3-carbohydroxamic acid], the half-maximal inhibitory concentration (IC50) at HDAC1 was greater than 10000 nM; at HDAC2, greater than 10000 nM; at HDAC6 it was 1000 to 10000 nM; on PDE5A it was 10 to 1000 nM.
For the compound `CCCc1nn(C)c2c(=O)[nH]c(-c3cc(Cc4ccc(/C=C/C(=O)NO)cc4)ccc3OCC)nc12` [Example 1-59], the IC50 was 1000 to 10000 nM at HDAC1, greater than 10000 nM on HDAC2, 1000 to 10000 nM on HDAC6 and 10 to 1000 nM at PDE5A.
`CCCc1nn(C)c2c(=O)[nH]c(-c3cc(Cc4ccc(C(=O)NO)cc4OC)ccc3OCC)nc12` [Example 1-60]: the IC50 on HDAC1 was greater than 10000 nM; on HDAC2 it was greater than 10000 nM; at HDAC6, greater than 10000 nM; on PDE5A, 10 to 1000 nM.
With `CCCc1nn(C)c2c(=O)[nH]c(-c3cc(CC4CC(C(=O)NO)C4)ccc3OCC)nc12` (stereo not drawn) [Example 1-62, 3-[[4-ethoxy-3-(1-methyl-7-oxo-3-propyl-6H-pyrazolo[4,3-d]pyrimidin-5 yl)phenyl]methyl]cyclobutanecarbohydroxamic acid], the IC50 at HDAC1, at HDAC2, at HDAC6 and at PDE5A was 10 to 1000 nM throughout.
Take `CCCc1nn(C)c2c(=O)[nH]c(-c3cc(CC4CC(C(=O)NO)C4)ccc3OCC)nc12` (stereo not drawn) [Example 1-63, 3-[[4-ethoxy-3-(1-methyl-7-oxo-3-propyl-6H-pyrazolo[4,3-d]pyrimidin-5 yl)phenyl]methyl]cyclobutanecarbohydroxamic acid]: the IC50 on HDAC1 is 10 to 1000 nM; at HDAC2, 1000 to 10000 nM; on HDAC6, 10 to 1000 nM; on PDE5A it was 10 to 1000 nM.
`CCCc1nn(C)c2c(=O)[nH]c(-c3cc(N4CCCC5(CCC(C(=O)NO)CC5)C4)ccc3OCC)nc12` (stereo not drawn) [Example 1-65]: the IC50 at HDAC1 was 1000 to 10000 nM; at HDAC2, greater than 10000 nM; at HDAC6, greater than 10000 nM; at PDE5A, 10 to 1000 nM.
With `CCCc1nn(C)c2c(=O)[nH]c(-c3cc(Cc4ccc(C(=O)NO)c(F)c4)ccc3OCC)nc12` [Example 1-66], the IC50 on HDAC1 was 1000 to 10000 nM; on HDAC2 it was greater than 10000 nM; on HDAC6 it was 10 to 1000 nM; at PDE5A it was 10 to 1000 nM.
Turning to `CCCc1nn(C)c2c(=O)[nH]c(-c3cc(N4CCC5(CC5C(=O)NO)C4)ccc3OCC)nc12` (stereo not drawn) [Example 1-67], the IC50 on HDAC1 was greater than 10000 nM; on HDAC2, greater than 10000 nM; on HDAC6 it was greater than 10000 nM; at PDE5A it was 10 to 1000 nM.
As to `CCCc1nn(C)c2c(=O)[nH]c(-c3cc(Cc4ccc(C(=O)NO)cc4F)ccc3OCC)nc12` [Example 1-68], the IC50 at HDAC1 was 1000 to 10000 nM; at HDAC2 it was greater than 10000 nM; on HDAC6 it was 10 to 1000 nM; on PDE5A, 10 to 1000 nM.
Regarding `CCCc1nn(C)c2c(=O)[nH]c(-c3cc(N4CCC5(CCN(c6ncc(C(=O)NO)cn6)CC5)C4)ccc3OCC)nc12` [Example 1-69, 2-[2-[4-ethoxy-3-(1-methyl-7-oxo-3-propyl-6H-pyrazolo[4,3-d]pyrimidin-5-yl)phenyl]-2,8-diazaspiro[4.5]decan-8-yl]pyrimidine-5-carbohydroxamic acid], the IC50 was in the range of 10 to 1000 nM at HDAC1, 1000 to 10000 nM at HDAC2, 1000 to 10000 nM at HDAC6 and 10 to 1000 nM on PDE5A.
Take `CCCc1nn(C)c2c(=O)[nH]c(-c3cc(N4CCC5(CCCN(c6ncc(C(=O)NO)cn6)C5)C4)ccc3OCC)nc12` (stereo not drawn) [Example 1-70]: the IC50 at HDAC1 lay in the range of 10 to 1000 nM; at HDAC2, 1000 to 10000 nM; at HDAC6, 1000 to 10000 nM; on PDE5A, 10 to 1000 nM.
Take `CCCc1nn(C)c2c(=O)[nH]c(-c3cc(C4CC(C(=O)NO)C4)ccc3OCC)nc12` (stereo not drawn) [Example 1-84, 3-[4-ethoxy-3-(1-methyl-7-oxo-3-propyl-6H-pyrazolo[4,3-d]pyrimidin-5-yl)phenyl]cyclobutanecarbohydroxamic acid]: the IC50 on HDAC1 lay in the range of 10 to 1000 nM; on HDAC2 it was 1000 to 10000 nM; on HDAC6 it was 10 to 1000 nM; at PDE5A, 10 to 1000 nM.

One may read the IC50 as the point on the concentration scale where inhibition reaches its midpoint.

The values above are taken from patent US9573956B2, “Compounds as dual inhibitors of phosphodiesterases and histone deacetylases” (FUNDACIÓN PARA LA INVESTIGACIÓN MÉDICA APLICADA, priority 2013, dated 2017).
